According to patent publication US20050004134A1, “Thiazole derivative and pharmaceutical use thereof” (priority 2001, published 2005):

Compound | melting point
CC(C)n1nc(-c2sc(N)nc2-c2cccc(Cl)c2)ccc1=O [Example 81, 6-[2-Amino-4-(3-chlorophenyl)-1,3-thiazol-5-yl]-2-isopropyl-3(2H)-pyridazinone] | 235.5 to 237 °C
Br.CC(C)n1nc(-c2sc(Nc3ccccc3)nc2-c2ccccc2)ccc1=O | 127 to 129 °C
COc1ccc(C(=O)Nc2nc(-c3ccccc3)c(-c3ccc(=O)n(C(C)C)n3)s2)cc1 [Example 45, N-[5-(1-Isopropyl-6-oxo-1,6-dihydro-3-pyridazinyl)-4-phenyl-1,3-thiazol-2-yl]-4-methoxybenzamide] | 219 to 221 °C
CC(C)n1nc(-c2sc(NC3CCCCC3)nc2-c2ccccc2)ccc1=O [Example 70, 6-[2-(Cyclohexylamino)-4-phenyl-1,3-thiazol-5-yl]-2-isopropyl-3(2H)-pyridazinone] | 149 to 151 °C
CC(C)n1nc(-c2sc(NC(=O)N3CCOCC3)nc2-c2ccccc2)ccc1=O [Example 32, N-[5-(1-Isopropyl-6-oxo-1,6-dihydro-3-pyridazinyl)-4-phenyl-1,3-thiazol-2-yl]-4-morpholinecarboxamide] | 231 to 232 °C
CC(C)n1nc(-c2sc(NCCCN3CCOCC3)nc2-c2ccccc2)ccc1=O.Cl.Cl | 150 to 153 °C
CC(C)n1nc(-c2sc(NC=O)nc2-c2ccc(F)cc2)ccc1=O [Example 76, 4-(4-fluorophenyl)-5-(1-isopropyl-6-oxo-1,6-dihydro-3-pyridazinyl)-1,3-thiazol-2-ylformamide] | 230 to 231 °C

Results, then the compound that gave them:

melting point | Compound
238 to 241 °C | Cn1nc(-c2sc(N)nc2-c2ccccc2)ccc1=O [Example 85, 6-(2-amino-4-phenyl-1,3-thiazol-5-yl)-2-methyl-3(2H)-pyridazinone]
163 to 164 °C | Cn1nc(-c2sc(C(=O)NC3CC3)nc2-c2ccccc2)ccc1=O [Example 189, N-cyclopropyl-5-(1-methyl-6-oxo-1,6-dihydro-3-pyridazinyl)-4-phenyl-1,3-thiazole-2-carboxamide]
224 to 226 °C | CCCn1nc(-c2sc(N)nc2-c2ccccc2)ccc1=O [Example 86, 6-(2-Amino-4-phenyl-1,3-thiazol-5-yl)-2-propyl-3(2H)-pyridazinone]
> 250 °C | O=C(NC1CC1)c1nc(-c2ccccc2)c(-c2ccc(=O)[nH]n2)s1 [Example 188, N-cyclopropyl-5-(6-oxo-1,6-dihydro-3-pyridazinyl)-4-phenyl-1,3-thiazole-2-carboxamide]
163.5 to 165 °C | CC(C)n1nc(-c2sc(C(=O)N3CCN(c4ccccc4)CC3)nc2-c2ccccc2)ccc1=O [Example 231, 2-isopropyl-6-(4-phenyl-2-[(4-phenyl-1-piperazinyl)carbonyl]-1,3-thiazol-5-yl}-3(2H)-pyridazinone]
142 to 144 °C | CC(C)n1nc(-c2sc(NC(=O)CNCCO)nc2-c2ccccc2)ccc1=O [Example 117, 2-[(2-Hydroxyethyl)amino]-N-[5-(1-isopropyl-6-oxo-1,6-dihydro-3-pyridazinyl)-4-phenyl-1,3-thiazol-2-yl]acetamide]
204 to 206 °C | Nc1nc(-c2ccccc2)c(-c2ccc(=O)n(CC3CC3)n2)s1 [Example 88, 6-(2-Amino-4-phenyl-1,3-thiazol-5-yl)-2-(cyclopropylmethyl)-3(2H)-pyridazinone]
117 to 118 °C | C=CCn1nc(-c2sc(C(=O)NCc3ccccn3)nc2-c2ccccc2)ccc1=O [Example 204, 5-(1-Allyl-6-oxo-1,6-dihydro-3-pyridazinyl)-4-phenyl-N-(2-pyridinylmethyl)-1,3-thiazole-2-carboxamide]
> 250 °C | NC(=O)c1nc(-c2ccccc2)c(-c2ccc(=O)[nH]n2)s1 [Example 158, 5-(6-oxo-1,6-dihydro-3-pyridazinyl)-4-phenyl-1,3-thiazole-2-carboxamide]
